MIC data for 4 compounds are collected here from ChEMBL document CHEMBL5505979, “Novel aminothiazoximone-corbelled ethoxycarbonylpyrimidones with antibiofilm activity to conquer Gram-negative bacteria through potential multitargeting effects” (Eur J Med Chem, 2024).

Values after ≈ are worked out from the molar mass of the structure shown.

Common to all, as to assay type: functional
Assay [1] relates to Candida albicans. Put plainly: Anti-fungal activity against Candida albicans 90023 assessed as inhibition of fungal growth.
Assay [2] has as its system Staphylococcus aureus. The assay can be described thus: Anti-bacterial activity against Staphylococcus aureus CMCC (B) 26003 assessed as inhibition of bacterial growth.
Assay [3] relates to Escherichia coli. Put plainly: Anti-bacterial activity against Escherichia coli JM109 assessed as inhibition of bacterial growth.
In assay [4] the test system is Escherichia coli. The assay can be described thus: Anti-bacterial activity against Escherichia coli ATCC 25922 assessed as inhibition of bacterial growth.
Assay [5] has as its system Candida tropicalis. The assay can be described thus: Anti-fungal activity against Candida tropicalis assessed as inhibition of fungal growth. As to conditions: Candida tropicalis; read-out: MIC.
For assay [6], the system named is Staphylococcus aureus. The assay can be described thus: Anti-bacterial activity against methicillin-resistant Staphylococcus aureus ATCC 43300 assessed as inhibition of bacterial growth. Conditions: Staphylococcus aureus, ATCC 43300; read-out: MIC.
Assay [7] deals with Staphylococcus aureus. The assay can be described thus: Anti-bacterial activity against Staphylococcus aureus ATCC 29213 assessed as inhibition of bacterial growth. Conditions: Staphylococcus aureus, ATCC 29213; read-out: MIC.
Assay [8] deals with Staphylococcus aureus. The assay can be described thus: Anti-bacterial activity against Staphylococcus aureus ATCC 1708 assessed as inhibition of bacterial growth. Conditions: Staphylococcus aureus, ATCC 1708; read-out: MIC.
Assay [9] relates to Staphylococcus aureus. The assay can be described thus: Anti-bacterial activity against Staphylococcus aureus ATCC 12600 assessed as inhibition of bacterial growth. Conditions: Staphylococcus aureus, ATCC 12600; read-out: MIC.
Assay [10] deals with Pseudomonas aeruginosa. Put plainly: Anti-bacterial activity against Pseudomonas aeruginosa CMCC (B) 10104 assessed as inhibition of bacterial growth. Conditions: Pseudomonas aeruginosa, CMCC (B) 10104; read-out: MIC.
Assay [11] relates to Pseudomonas aeruginosa. The assay can be described thus: Anti-bacterial activity against Pseudomonas aeruginosa ATCC 9027 assessed as inhibition of bacterial growth.
For assay [12], the system named is Pseudomonas aeruginosa. Put plainly: Anti-bacterial activity against Pseudomonas aeruginosa ATCC 15442 assessed as inhibition of bacterial growth. Conditions: Pseudomonas aeruginosa, ATCC 15442; read-out: MIC.
For assay [13], the system named is Pseudomonas aeruginosa. Put plainly: Anti-bacterial activity against Pseudomonas aeruginosa ATCC 27853 assessed as inhibition of bacterial growth. As to conditions: Pseudomonas aeruginosa, ATCC 27853; read-out: MIC.
Assay [14] relates to Candida albicans. The assay can be described thus: Anti-fungal activity against Candida albicans assessed as inhibition of fungal growth. As to conditions: Candida albicans; read-out: MIC.
The test system of assay [15] is Staphylococcus aureus. The assay can be described thus: Anti-bacterial activity against methicillin-resistant Staphylococcus aureus N315 assessed as inhibition of bacterial growth. As to conditions: Staphylococcus aureus, N315; read-out: MIC.
The test system of assay [16] is Staphylococcus aureus. The assay can be described thus: Anti-bacterial activity against Staphylococcus aureus ATCC 25923 assessed as inhibition of bacterial growth. Conditions: Staphylococcus aureus, ATCC 25923; read-out: MIC.
Assay [17] deals with Enterococcus faecalis. Put plainly: Anti-bacterial activity against Enterococcus faecalis V583 assessed as inhibition of bacterial growth.
The subject of assay [18] is Klebsiella pneumoniae. Put plainly: Anti-bacterial activity against Klebsiella pneumoniae KPN325 assessed as inhibition of bacterial growth. Conditions: Klebsiella pneumoniae, KPN325; read-out: MIC.
Assay [19] concerns Pseudomonas aeruginosa. Put plainly: Anti-bacterial activity against Pseudomonas aeruginosa ST235 assessed as inhibition of bacterial growth. Conditions: Pseudomonas aeruginosa, ST235; read-out: MIC.
For assay [20], the system named is Candida parapsilosis. The assay can be described thus: Anti-fungal activity against Candida parapsilosis assessed as inhibition of fungal growth. As to conditions: Lodderomyces parapsilosis; read-out: MIC.
Assay [21] deals with Acinetobacter baumannii. The assay can be described thus: Anti-bacterial activity against Acinetobacter baumannii R674 assessed as inhibition of bacterial growth.
For assay [22], the system named is Staphylococcus aureus. The assay can be described thus: Anti-bacterial activity against Staphylococcus aureus CMCC (B) 26001 assessed as inhibition of bacterial growth.
Assay [23] relates to Staphylococcus aureus. Put plainly: Anti-bacterial activity against Staphylococcus aureus ATCC 6538 assessed as inhibition of bacterial growth.

Usually MIC stands for the lowest concentration that inhibits growth of the organism. With `CCCCc1nc(Cl)c(C2NC(=O)NC(CN3CCN(CC(=O)c4ccc(C)cc4)CC3)=C2C(=O)OCC)[nH]1` (stereo not drawn), the MIC in assay [1] amounted to 230 µM (≈ 128 µg/mL); in assay [2] it was 460 µM (≈ 256 µg/mL); in [3], 29 µM (≈ 16.2 µg/mL); in assay [4] it was 115 µM (≈ 64.1 µg/mL); in assay [5], 460 µM (≈ 256 µg/mL); in assay [6] it was 115 µM (≈ 64.1 µg/mL). Moreover, the MIC is 58 µM (≈ 32.3 µg/mL) in assay [7]; 460 µM (≈ 256 µg/mL) in assay [8]; 230 µM (≈ 128 µg/mL) in assay [9]; 230 µM (≈ 128 µg/mL) in [10]; 29 µM (≈ 16.2 µg/mL) in assay [11]; 460 µM (≈ 256 µg/mL) in assay [12]. In addition, the MIC came to 230 µM (≈ 128 µg/mL) in [13]; 460 µM (≈ 256 µg/mL) in assay [14]; 230 µM (≈ 128 µg/mL) in [15]; 58 µM (≈ 32.3 µg/mL) in [16]; 58 µM (≈ 32.3 µg/mL) in assay [17]; 230 µM (≈ 128 µg/mL) in [18]. Further, the minimum inhibitory concentration (MIC) in assay [19] came to 58 µM (≈ 32.3 µg/mL); in assay [20], 460 µM (≈ 256 µg/mL); in [21], 115 µM (≈ 64.1 µg/mL); in assay [22] it was 58 µM (≈ 32.3 µg/mL); in [23], 230 µM (≈ 128 µg/mL).
For the compound `CCOC(=O)C1=C(CN2CCN(C(=O)/C(=N/OC)c3csc(N)n3)CC2)NC(=O)NC1c1ccc(C(F)(F)F)cc1` (stereo not drawn), the minimal inhibitory concentration (MIC) in assay [1] was determined as 7 µM (≈ 4.17 µg/mL); in [2], 108 µM (≈ 64.3 µg/mL); in [3], 27 µM (≈ 16.1 µg/mL); in assay [4] it was 27 µM (≈ 16.1 µg/mL); in [5], 430 µM (≈ 256 µg/mL); in [6] it was 27 µM (≈ 16.1 µg/mL). Besides, the minimal inhibitory concentration (MIC) in [7] is 27 µM (≈ 16.1 µg/mL); in assay [8], 27 µM (≈ 16.1 µg/mL); in assay [9], 27 µM (≈ 16.1 µg/mL); in assay [10] it was 27 µM (≈ 16.1 µg/mL); in assay [11], 54 µM (≈ 32.2 µg/mL); in [12], 54 µM (≈ 32.2 µg/mL). Moreover, the MIC in [13] stood at 54 µM (≈ 32.2 µg/mL); in [14] it was 430 µM (≈ 256 µg/mL); in assay [15] it was 108 µM (≈ 64.3 µg/mL); in [16], 27 µM (≈ 16.1 µg/mL); in assay [17], 27 µM (≈ 16.1 µg/mL); in assay [18], 108 µM (≈ 64.3 µg/mL). The MIC in assay [19] came to 54 µM (≈ 32.2 µg/mL); in [20] it was 430 µM (≈ 256 µg/mL); in [21] it was 27 µM (≈ 16.1 µg/mL); in assay [22], 54 µM (≈ 32.2 µg/mL); in assay [23], 54 µM (≈ 32.2 µg/mL).
Turning to `CCCCc1nc(Cl)c(C2NC(=O)NC(CN3CCN(CC(=O)c4ccccc4)CC3)=C2C(=O)OCC)[nH]1` (stereo not drawn), the MIC in assay [1] came to 15 µM (≈ 8.15 µg/mL); in assay [2], 472 µM (≈ 256 µg/mL); in assay [3], 118 µM (≈ 64.1 µg/mL); in [4], 59 µM (≈ 32 µg/mL); in assay [5] it was 472 µM (≈ 256 µg/mL); in assay [6] it was 59 µM (≈ 32 µg/mL). The MIC amounted to 59 µM (≈ 32 µg/mL) in [7]; 472 µM (≈ 256 µg/mL) in assay [8]; 236 µM (≈ 128 µg/mL) in assay [9]; 118 µM (≈ 64.1 µg/mL) in assay [10]; 118 µM (≈ 64.1 µg/mL) in assay [11]; 118 µM (≈ 64.1 µg/mL) in assay [12]. The MIC in assay [13] worked out at 118 µM (≈ 64.1 µg/mL); in assay [14], 472 µM (≈ 256 µg/mL); in assay [15], 236 µM (≈ 128 µg/mL); in [16] it was 59 µM (≈ 32 µg/mL); in [17], 236 µM (≈ 128 µg/mL); in assay [18], 236 µM (≈ 128 µg/mL). Also, the MIC stood at 118 µM (≈ 64.1 µg/mL) in [19]; 472 µM (≈ 256 µg/mL) in [20]; 118 µM (≈ 64.1 µg/mL) in assay [21]; 59 µM (≈ 32 µg/mL) in assay [22]; 236 µM (≈ 128 µg/mL) in [23].
On to `OC(Cn1cncn1)(Cn1cncn1)c1ccc(F)cc1F` [FLUCONAZOLE], for which the MIC in assay [1] worked out at 7 µM (≈ 2.14 µg/mL); in assay [5], 26 µM (≈ 7.96 µg/mL); in assay [14] it was 13 µM (≈ 3.98 µg/mL); in [20], 13 µM (≈ 3.98 µg/mL).
